Data on three molecules can be found in ChEMBL document CHEMBL4610071, “Ancistrosecolines A-F, Unprecedented seco-Naphthylisoquinoline Alkaloids from the Roots of Ancistrocladus abbreviatus, with Apoptosis-Inducing Potential against HeLa Cancer Cells” (J Nat Prod, 2020).

Active and inactive are the calls of the source. The calls are words filed in the database; no cut-off is given here.

What all share (format): functional, cell-based
In assay [1] the test system is HeLa. Kind of assay: Induction of apoptosis in human HeLa cells at 50 uM assessed as nuclear fragmentation incubated for 72 hrs by Hoechst 33342 staining based microscopic method.
For assay [2], the system named is HeLa. Kind of assay: Induction of morphological alteration in human HeLa cells at 50 uM measured within 3 hrs by real-time digital microscopy.
In assay [3] the test system is HeLa. The assay is described as follows: Induction of apoptosis in human HeLa cells at 50 uM measured within 24 hrs by real-time digital microscopy.
In assay [4] the test system is HeLa. Kind of assay: Cytotoxicity against human HeLa cells incubated for 72 hrs by WST-8 assay. On the technique in general: Tetrazolium dyes change colour on reduction, which living cells bring about.
Assay [5] deals with HeLa. The assay is described as follows: Induction of apoptosis in human HeLa cells at 50 uM assessed as appearance of elongated cellular morphology incubated for 72 hrs by Hoechst 33342 staining based microscopic method.
Assay [6] deals with HeLa. The assay is described as follows: Inhibition of cell division in human HeLa cells at 50 uM measured within 3 hrs by real-time digital microscopy.

With `COc1cc(C[C@H](C)N)cc(O)c1-c1ccc(OC)c2c(OC)cc(C)cc12` (atropisomer P), the result in the assay with HeLa [1], in the assay on HeLa [2], in the assay on HeLa [3] and in the assay with HeLa [5] was Active. Moreover, the Activity result with HeLa [4] was “Dose-dependent effect”. Also, the IC50 (commonly the point on the concentration scale where inhibition reaches its midpoint) in the assay on HeLa [4] is 11.2 µM. The inhibition entry with HeLa [6] is “Active”.

The molecule `CN[C@@H](C)Cc1cc(O)c(-c2c(C)cc(OC)c3c(OC)cccc23)c(OC)c1` (atropisomer P) registered an IC50 in the assay with HeLa [4] of 52.6 µM. That is a double-digit micromolar value.

On to `COc1cc(C[C@H](C)N)cc(O)c1-c1c(C)cc(OC)c2c(OC)cccc12` (atropisomer P), for which half-maximal inhibition in the assay on HeLa [4] (IC50) was put at 72.4 µM.
